From article PMC9181887, “In Vitro Antithrombotic, Hematological Toxicity, and Inhibitor Studies of Protocatechuic, Isovanillic, and p-Hydroxybenzoic Acids from Maclura tricuspidata (Carr.) Bur” (Molecules, 2022)
Where two headings read alike, the source gives them in different places.

Legend:
platelet aggregation [1] = tested on: platelet aggregation; parameters: method as in PMID 20824965, PMID 9869276; conditions: ADP or collagen-induced platelet aggregation; cited from earlier work
human plasma [2] = assay: Coagulation assay, TT; type: biochemical; conditions: 50–100 μg
Procedure: (§1) A coagulation assay was performed to evaluate the prolongation potential of the compounds in blood coagulation by measuring APTT, PT, and TT, as previously described. After pretreatment of the compounds with human plasma for 10 min, APTT, PT, and TT were determined by a coagulometer (Thrombostat 1) manufactured by Behnk Elektronik, Germany.

human plasma [3] = assay: Coagulation assay, PT; type: biochemical; conditions: 50–100 μg
Procedure: as §1

platelet aggregation [4] = tested on: platelet aggregation; parameters: method as in PMID 20824965, PMID 9869276; conditions: sodium arachidonate-induced platelet aggregation; cited from earlier work

O=C(O)c1ccc(O)cc1 [4-HA, 4-hydroxybenzoic acid]
IC50 (platelet aggregation [1]): 1000 to 3400 µM | TT, fold of control (human plasma [2]): 1.14–1.15 fold | thrombin time (TT) (human plasma [2]; control 9.4 ± 0.2 s, p < 0.01): 10.7 to 10.8 s | PT, fold of control (human plasma [3]): 1.25–1.26 fold | prothrombin time (PT) (human plasma [3]; control 20.8 ± 0.7 s, p < 0.05): 25.9 to 26.2 s | IC50 (platelet aggregation [4]): 300 µM
